Reference: PubChem BioAssay (NCI)
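48-hour exposure; five concentrations; linearly interpolated endpoints. TGI is the concentration that stops growth completely.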

Experiments:
Assay in all cases: NCI tumour cell line growth inhibition, 48 h
[1] = system: HOP-18 NSCLC
[2] = system: U251 CNS
[3] = system: NCI-H460 lung
[4] = system: SN12C renal
[5] = system: SW-620 colon
[6] = system: DMS 114 small cell lung
[7] = system: P388 leukemia
[8] = system: UACC-257 melanoma
[9] = system: COLO 205 colon
[10] = system: SF-268 CNS
[11] = system: HT29 colon
[12] = system: SNB-19 CNS
[13] = system: SK-MEL-2 melanoma
[14] = system: KM12 colon
[15] = system: HOP-62 NSCLC
[16] = system: SF-295 CNS
[17] = system: HL-60(TB) leukemia
[18] = system: A498 renal
[19] = system: RXF 393 renal
[20] = system: OVCAR-8 ovarian
[21] = system: OVCAR-4 ovarian
[22] = system: HCT-15 colon
[23] = system: SK-MEL-5 melanoma
[24] = system: HCT-116 colon
[25] = system: KM20L2 colon
[26] = system: SF-539 CNS
[27] = system: IGROV1 ovarian
[28] = system: A549 NSCLC
[29] = system: NCI-H522 lung
[30] = system: MOLT-4 leukemia
[31] = system: HCC-2998 colon
[32] = system: NCI-H23 lung
[33] = system: SN12K1 renal
[34] = system: DMS 273 small cell lung
[35] = system: NCI-H226 lung
[36] = system: MALME-3M melanoma
[37] = system: UACC-62 melanoma
[38] = system: SNB-78 CNS
[39] = system: EKVX NSCLC
[40] = system: CCRF-CEM leukemia
[41] = system: OVCAR-3 ovarian
[42] = system: OVCAR-5 ovarian
[43] = system: XF 498 CNS
[44] = system: LOX IMVI melanoma
[45] = system: RPMI-8226 leukemia
[46] = system: SK-OV-3 ovarian
[47] = system: MCF7 breast
[48] = system: SK-MEL-28 melanoma
[49] = system: HOP-92 NSCLC
[50] = system: M19-MEL melanoma
[51] = system: SNB-75 CNS
[52] = system: UO-31 renal
[53] = system: DLD-1 colon
[54] = system: NCI/ADR-RES ovarian
[55] = system: K-562 leukemia
[56] = system: 786-0 renal
[57] = system: ACHN renal
[58] = system: LXFL 529 NSCLC
[59] = system: CAKI-1 renal
[60] = system: M14 melanoma
[61] = system: RXF-631 renal

CSc1nc2c(ncn2C2OC(CO)C(O)C(O)C2O)c(=O)n1C (stereo unspecified)
TGI [1]: > 100 µM | TGI [2]: > 100 µM | TGI [3]: > 100 µM | TGI [4]: > 100 µM | TGI [5]: > 100 µM | TGI [6]: > 100 µM | TGI [7]: > 100 µM | TGI [8]: > 100 µM | TGI [9]: > 100 µM | TGI [10]: > 100 µM | TGI [11]: > 100 µM | TGI [12]: > 100 µM | TGI [13]: > 100 µM | TGI [14]: > 100 µM | TGI [15]: > 100 µM | TGI [16]: > 100 µM | TGI [17]: > 100 µM | TGI [18]: > 100 µM | TGI [19]: > 100 µM | TGI [20]: > 100 µM | TGI [21]: > 100 µM | TGI [22]: > 100 µM | TGI [23]: > 100 µM | TGI [24]: > 100 µM | TGI [25]: > 100 µM | TGI [26]: > 100 µM | TGI [27]: > 100 µM | TGI [28]: > 100 µM | TGI [29]: > 100 µM | TGI [30]: > 100 µM | TGI [31]: > 100 µM | TGI [32]: > 100 µM | TGI [33]: > 100 µM | TGI [34]: > 100 µM | TGI [35]: > 100 µM | TGI [36]: > 100 µM | TGI [37]: > 100 µM | TGI [38]: > 100 µM | TGI [39]: > 100 µM | TGI [40]: > 100 µM | TGI [41]: > 100 µM | TGI [42]: > 100 µM | TGI [43]: > 100 µM | TGI [44]: > 100 µM | TGI [45]: > 100 µM | TGI [46]: > 100 µM | TGI [47]: > 100 µM | TGI [48]: > 100 µM | TGI [49]: > 100 µM | TGI [50]: > 100 µM | TGI [51]: > 100 µM | TGI [52]: > 100 µM | TGI [53]: > 100 µM | TGI [54]: > 100 µM | TGI [55]: > 100 µM

O=C(OCc1ccccc1)N1N=NC2C3CC(OCc4ccccc4)(OCc4ccccc4)C(O3)C21 (stereo unspecified)
TGI [1]: 94 µM | TGI [2]: > 100 µM | TGI [3]: > 100 µM | TGI [4]: > 100 µM | TGI [5]: 80.5 µM | TGI [6]: 53.1 µM | TGI [8]: 41.4 µM | TGI [9]: 63 µM | TGI [10]: 87.7 µM | TGI [11]: > 100 µM | TGI [13]: 33 µM | TGI [14]: > 100 µM | TGI [15]: > 100 µM | TGI [16]: > 100 µM | TGI [17]: 32.6 µM | TGI [18]: > 100 µM | TGI [19]: 35.6 µM | TGI [21]: > 100 µM | TGI [22]: > 100 µM | TGI [25]: > 100 µM | TGI [26]: > 100 µM | TGI [27]: > 100 µM | TGI [28]: > 100 µM | TGI [30]: 60.7 µM | TGI [31]: 83.2 µM | TGI [32]: 38.9 µM | TGI [56]: > 100 µM | TGI [34]: 94.9 µM | TGI [35]: 41.8 µM | TGI [36]: 43.1 µM | TGI [37]: 61.4 µM | TGI [38]: > 100 µM | TGI [40]: > 100 µM | TGI [41]: 59.6 µM | TGI [42]: 70.4 µM | TGI [43]: 53.4 µM | TGI [44]: 42.8 µM | TGI [45]: > 100 µM | TGI [46]: > 100 µM | TGI [57]: > 100 µM | TGI [58]: > 100 µM | TGI [48]: 55.1 µM | TGI [59]: > 100 µM | TGI [49]: 43.9 µM | TGI [50]: 77.6 µM | TGI [51]: 82.4 µM | TGI [52]: 28.4 µM | TGI [53]: > 100 µM | TGI [55]: 73.6 µM | TGI [60]: > 100 µM | TGI [61]: > 100 µM
